# Paper PMC5034429, “Enantioselective cascade biocatalysis for deracemization of 2-hydroxy acids using a three-enzyme system” (Microbial Cell Factories, 2016)
# Target: T1, (S)-2-HADH from P. aeruginosa NUST (Pseudomonas aeruginosa, UniProt R9RKA7)
# T1 construct: synthetic gene in pET28b, E. coli BL21(DE3); resting cells; ~42 kDa on SDS-PAGE; FMN flavoprotein; strain also misprinted NSUT
# T1 sequence (R9RKA7 1-393): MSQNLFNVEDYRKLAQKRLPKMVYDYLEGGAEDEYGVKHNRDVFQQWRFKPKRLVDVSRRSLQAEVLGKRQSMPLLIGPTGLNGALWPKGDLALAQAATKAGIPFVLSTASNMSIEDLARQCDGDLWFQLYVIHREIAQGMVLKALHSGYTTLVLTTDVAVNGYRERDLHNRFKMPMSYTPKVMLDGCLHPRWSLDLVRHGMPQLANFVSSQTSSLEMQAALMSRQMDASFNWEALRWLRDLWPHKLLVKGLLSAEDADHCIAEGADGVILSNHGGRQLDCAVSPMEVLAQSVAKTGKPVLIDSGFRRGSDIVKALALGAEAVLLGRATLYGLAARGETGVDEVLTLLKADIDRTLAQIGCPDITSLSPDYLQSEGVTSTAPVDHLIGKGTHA
# Assay: apoenzyme reactivation
# Format: biochemical
# Conditions: flavin removal, then addition of FMN
smiles,measurement,value
Cc1cc2nc3c(=O)[nH]c(=O)nc-3n(C[C@H](O)[C@H](O)[C@H](O)COP(=O)(O)O)c2cc1C [FMN],apoenzyme reactivation,The activity of the apoenzyme was partly reactivated by the addition of FMN
